# Paper PMC6940896, “Development of a Highly Efficient Hybrid Peptide That Increases Immunomodulatory Activity Via the TLR4-Mediated Nuclear Factor-κB Signaling Pathway” (International Journal of Molecular Sciences, 2019)
# No end group written: not given here.
# What was measured:
# recombinant TLR4/MD2 = biological target: T1, recombinant TLR4/MD2 (Homo sapiens, UniProt O00206+Q9Y6Y9); assay: Surface plasmon resonance binding to immobilized TLR4/MD2; conditions: SPR, ProteOn XPR36, GLH chip, 25 °C, PBS 0.1% Tween 20 with 2% DMSO, 1:1 model, 0-10 μM peptide
# T1 construct: purchased R&D Systems
# Protocol: Surface plasmon resonance (SPR) experiments were performed using a ProteOn^TM XPR36 instrument (Bio-Rad, Hercules, CA, USA) with a ProteOn^TM GLH sensor chip (Bio-Rad) at 25 °C. PBS supplemented with 0.1% Tween 20 (containing 2% dimethyl sulfoxide) was used as a running buffer and was continuously passed into the reaction chamber at 30 μL/min. A SPR sensing chip with recombinant TLR4/MD2 (R&D Systems, Minneapolis, MN, USA) that was immobilized by amino coupling was used to capture the peptide, according to the manufacturer’s protocol. […] The running buffer was injected into the empty channel as a reference. Sensor chip regeneration and desorption were achieved by injecting 10 mM Gly-HCl buffer (pH 2.5) before the next round of analyses. The experimental data were analyzed by ProteOn Manager^TM software (version 2.0). Binding curves were processed for the initial injection alignment and baseline, and a reference-subtracted sensorgram was globally fitted to the curves to describe a homogeneous 1:1 model. Data from the protein surfaces were grouped together to fit the kinetic rate constants (Ka and Kd). The equilibrium dissociation constant (KD) for the peptide-TLR4/MD2 interaction was calculated using the following equation:(5) KD=Kd/Ka
# TLR4/MD-2 = biological target: T2, TLR4/MD-2 (Mus musculus, UniProt Q9JHF9+Q9QUK6); assay: Cytokine production in RAW264.7 cells with or without TLR4/MD-2 mAb pretreatment; format: cell-based; conditions: then 10 μg/mL peptide 24 h, ELISA, n = 3
# T2 construct: endogenous in cells; host or cells: RAW264.7
# T2 sequence (Q9QUK6 26-835): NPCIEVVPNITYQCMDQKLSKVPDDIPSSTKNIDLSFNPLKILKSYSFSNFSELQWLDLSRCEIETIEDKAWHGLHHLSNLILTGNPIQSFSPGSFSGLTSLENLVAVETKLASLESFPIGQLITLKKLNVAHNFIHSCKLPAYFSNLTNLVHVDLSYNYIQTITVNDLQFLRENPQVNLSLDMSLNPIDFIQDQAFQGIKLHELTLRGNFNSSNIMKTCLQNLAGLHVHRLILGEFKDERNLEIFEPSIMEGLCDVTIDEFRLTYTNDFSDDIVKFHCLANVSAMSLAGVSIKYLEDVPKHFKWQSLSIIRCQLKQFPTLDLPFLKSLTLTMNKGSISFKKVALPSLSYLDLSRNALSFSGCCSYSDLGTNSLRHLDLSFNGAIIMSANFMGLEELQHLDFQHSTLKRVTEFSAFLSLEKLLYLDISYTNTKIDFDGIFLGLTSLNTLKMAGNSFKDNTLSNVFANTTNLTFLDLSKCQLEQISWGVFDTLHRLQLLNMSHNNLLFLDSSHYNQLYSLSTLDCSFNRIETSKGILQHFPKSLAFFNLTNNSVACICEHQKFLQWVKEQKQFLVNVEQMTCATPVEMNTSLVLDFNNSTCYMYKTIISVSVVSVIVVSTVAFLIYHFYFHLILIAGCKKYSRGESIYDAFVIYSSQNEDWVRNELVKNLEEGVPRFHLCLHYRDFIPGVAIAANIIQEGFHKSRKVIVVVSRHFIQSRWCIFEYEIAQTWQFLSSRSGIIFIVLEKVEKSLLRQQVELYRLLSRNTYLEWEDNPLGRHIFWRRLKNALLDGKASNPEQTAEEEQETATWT
# T2 sequence (Q9JHF9 19-160): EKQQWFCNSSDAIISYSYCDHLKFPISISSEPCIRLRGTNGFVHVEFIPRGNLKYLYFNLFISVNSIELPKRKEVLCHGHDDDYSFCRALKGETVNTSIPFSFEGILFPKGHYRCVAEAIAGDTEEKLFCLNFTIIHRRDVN
# Protocol: RAW264.7 cells were treated with PBS or an anti-mouse mAbTLR4/MD-2 complex (MTS510 Ab) (eBioscience, San Diego, CA, USA) at 37 °C for 1 h, and RAW264.7 cells were treated with or without 10 μg/mL peptides for 24 h at 37 °C in a moist atmosphere (5% CO2, 95% air). Levels of TNF-α, IL-6, and IL-1β in the culture supernatant were detected by ELISA.
# peritoneal macrophages = assay: Peritoneal macrophage phagocytosis (neutral red uptake) in CTX-immunosuppressed mice; format: in vivo, mouse; conditions: peritoneal macrophages of mice, OD 540 nm, CTX 80 mg/kg ip days 1-3, peptide 10 mg/kg ip days 4-10, control group 55.67%, n = 12
# Protocol: Peritoneal macrophages were aseptically obtained from the different groups of mice by peritoneal lavage with 5 mL ice-cold phosphate-buffered saline (PBS). The peritoneal macrophages were further isolated by incubating peritoneal exudate cells at 37 °C in a moist atmosphere (5% CO2, 95% air) for 3 h to allow the cells to adhere. The adherent cells were washed twice and collected as peritoneal macrophages.
# The phagocytic capacity of the peritoneal macrophages was measured by the neutral red uptake method [52]. […] The OD was measured using a microplate reader at 540 nm. The phagocytic rate was calculated in the following way:(4) hagocytic rate (%)=OD540(sample)/OD540(control) ×100% where OD540 (sample) is the absorbance at 540 nm by peptide-treated cells and OD540 (control) is the absorbance at 540 nm by the cells without peptides treated.
# TLR4-NF-κB pathway = assay: Western blot of TLR4-NF-κB pathway proteins in CTX-treated mice; format: in vivo, mouse; conditions: CTX-treated mice with or without LTAa, n = 3
# Protocol: Sigma-Aldrich, St. Louis, MO, USA) group, a LL-37 group, a Tα1 group, and a LTAa group. For the first 3 days, CTX (80 mg/kg mouse weight) was administered intraperitoneally once daily to establish the immunosuppressed animal model. From days 4 to 10 (7 days), peptides (10 mg/kg mouse weight) were administered intraperitoneally each day. The CTX group was only treated with CTX, and the control group was given sterile saline. The dose volume was 200 μL. Twenty-four hours after the last dose, the mice were killed and their tissues and blood collected for analysis. The body weight index was calculated in the following way:(2) Index (%)=final body weight-[…] body weight/initial body weight ×100% Whole protein in the serum was collected using a whole-protein extraction kit (Nanjing KeyGEN Biotech, Nanjing, China) according to the manufacturer's instructions. The protein concentration was measured using a bicinchoninic acid kit (Nanjing KeyGEN Biotech). The different proteins were separated by sodium dodecyl sulfate polyacrylamide gel electrophoresis and transferred onto polyvinylidene difluoride membranes (Bio-Rad). […]
# splenocyte T lymphocytes = assay: T lymphocyte subsets in splenocytes by flow cytometry; format: in vivo, mouse; conditions: versus group treated with CTX alone, peptide 10 mg/kg ip days 4-10, n = 12
# Protocol: The spleen was collected, ground, and passed through 40-μm-mesh cell strainers filled with PBS to harvest the cell suspension. The cells were stained with CD3- PerCP, CD4-APC, and CD8-FITC for 30 min at 4 °C for T lymphocyte measurements. The results were analyzed using a Guava® easyCyte^TM 6-21 system and Guavasoft 3.1.1 software (Millipore, Burlington, MA, USA).
# RAW264.7 cells = assay: Cytokine production in RAW264.7 macrophages (ELISA); format: cell-based, mouse; conditions: RAW264.7, 10 μg/mL peptide, 12 h (Figure 3 legend; method says 24 h), n = 5
# Protocol: RAW264.7 cells were stimulated with or without 10 μg/mL peptides for 24 h at 37 °C in a humidified incubator with 5% CO2. Levels of TNF-α, IL-6, and IL-1β in the culture supernatant were measured using enzyme-linked immunosorbent assay (ELISA) kits according to the manufacturer’s instructions
# T1 sequence (O00206 24-631 limits assumed, species assumed): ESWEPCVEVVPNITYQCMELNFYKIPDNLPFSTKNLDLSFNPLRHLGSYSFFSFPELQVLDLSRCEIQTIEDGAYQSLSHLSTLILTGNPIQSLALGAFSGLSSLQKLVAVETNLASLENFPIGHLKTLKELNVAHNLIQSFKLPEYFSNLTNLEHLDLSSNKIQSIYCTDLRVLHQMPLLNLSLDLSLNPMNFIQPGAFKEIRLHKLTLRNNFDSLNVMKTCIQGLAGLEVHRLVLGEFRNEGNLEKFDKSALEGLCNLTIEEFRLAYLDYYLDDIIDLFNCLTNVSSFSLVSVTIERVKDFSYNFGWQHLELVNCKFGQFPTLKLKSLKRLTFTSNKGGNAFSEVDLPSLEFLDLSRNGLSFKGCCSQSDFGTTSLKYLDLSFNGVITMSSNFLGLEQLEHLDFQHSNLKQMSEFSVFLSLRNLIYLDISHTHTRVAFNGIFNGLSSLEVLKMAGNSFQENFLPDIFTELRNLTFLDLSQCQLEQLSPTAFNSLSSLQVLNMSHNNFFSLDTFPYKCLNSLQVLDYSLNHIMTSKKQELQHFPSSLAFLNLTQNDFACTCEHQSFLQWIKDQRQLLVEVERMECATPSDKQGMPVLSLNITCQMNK
# T1 sequence (Q9Y6Y9 19-160, species assumed): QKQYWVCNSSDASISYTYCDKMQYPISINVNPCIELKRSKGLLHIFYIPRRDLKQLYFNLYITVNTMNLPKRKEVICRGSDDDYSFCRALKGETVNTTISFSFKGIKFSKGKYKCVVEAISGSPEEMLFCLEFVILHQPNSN
sequence,measurement,setting,value
IGKEFKRIVQRIKDFLRNLVPRTEKEKKEVVE [LTAa],Ka for binding to TLR4/MD2,recombinant TLR4/MD2,7.38e+09 M⁻¹ s⁻¹
same,Kd (rate constant) for binding to TLR4/MD2,recombinant TLR4/MD2,0.362 s⁻¹
same,"TNF-α, IL-6 and IL-1β production, PBS pretreatment","TLR4/MD-2; RAW264.7, PBS 1 h",significant increase
same,"TNF-α, IL-6 and IL-1β production induced by LTAa after TLR4/MD-2 mAb pretreatment","TLR4/MD-2; RAW264.7, TLR4/MD-2 mAb (MTS510 Ab) 1 h",significantly inhibited
same,macrophage phagocytic rate,peritoneal macrophages,significantly higher phagocytic rates than those in the Tα1- or LL-37-treated groups
same,"TLR4, MyD88 and TRAF6 expression",TLR4-NF-κB pathway,increasing
same,CD4+:CD8+ T lymphocyte ratio,splenocyte T lymphocytes,higher
same,"TNF-α, IL-6 and IL-1β production/secretion",RAW264.7 cells,remarkable increases
